The data set can be described thus: Acute toxicity (LD50) on intraperitoneal injection into mice. The note with it: mouse, in vivo, ip.

The structures appear in SMILES notation.

For the molecule `CC(C)OC(=O)CNC(=O)[C@H](CS)NC(=O)CC[C@H](N)C(=O)O` [isopropyl ester, isopropyl y-L-glutamyl-L-cysteinylglycinate], the LD50 (as a rule, the dose at which mortality reaches 50%) is about 5300 mg/kg.

The values above are taken from patent EP0249401A1, “Antianemic agent” (YAMANOUCHI PHARMACEUTICAL CO. LTD., priority 1986, dated 1987).
